The results in this text go back to patent US5580869A, “1N substituted pyrazino[2,3-c]-1,2,6-thiadiazine 2,2-dioxides” (Prodesfarma, S.A., priority 1992, dated 1996).

Data set [1] has as its system isolated guinea pig trachea. The data set is described as follows: In vitro trachea relaxing activity (spontaneous tone in isolated trachea, method of Luduena). Type of data set: cell-based. The conditions noted are these: Cavia porcellus, 30 mcg/ml, relative to maximum relaxation by noradrenaline 0.3 mcg/ml. The procedure:
(§1) The platelet antiaggregation activity was determined in vitro using platelet rich rabbit plasma and arachidonic acid (50 mcg/ml) as aggregation inducing agent. The results are given for tracheal relaxation as percentage inhibition of the tracheal tone relative to the maximum relaxation induced by noradrenaline (0.3 mcg/ml) and for the platelet aggregation as a percentage of the maximum effect observed with the proaggregation agent.

For data set [2], the system named is histamine induced bronchospasm in anaesthetized guinea pig. The data set is described as follows: In vivo bronchodilatory effect, histamine induced bronchospasm (Konzett and Rossler). The conditions noted are these: area under the curve relative to theophylline. The procedure: Konzett and Rosslet's technique was used for evaluation, with the capacity of the tested products, when administered intraduodenally at dose levels of 25 and 100 mg/kg, to antagonize a histamine induced bronchospasm (7.5 mcg/ml) in anaesthetized guinea pig being determined. Theophylline (25 mg/kg, i.d.) was used as reference drug, with the areas under the curve defined by the bronchospasm inhibition percentages and the post-administration time being compared.

For another data set, the system named is rats. Nature of the data set: Diuretic and saluretic activity (urine volume and electrolyte excretion over 6 h), technique of Lipschits et al. Type of data set: in vivo. The note with it: rat, 20 mg/kg po, (N) = not statistically significant vs control. As for the experimental part: The synthesized compounds were, therefore, subjected a pharmacological screening to evaluate a possible diuretic and salt excreting activity. Thus, an acute dose of each of the products of synthesis (20 or 25 mg/kg) was administered to rats and the amount of urine and the excretion of electrolytes was measured, following the technique described by Lipschits et al., with certain modifications (J. Pharmacol. Exp.Ther. 1943-79; 97-110).
The volume (ml/kg/6 h), the pH and the excretion of sodium, potassium and chloride ions (mEq/kg/6 h) were determined on the urine quantitatively collected over 6 hours, using triamterene and hydrochlorothiazide as reference diuretics.

Data set [3] deals with platelet rich rabbit plasma. Nature of the data set: In vitro platelet antiaggregation activity, arachidonic acid induced, platelet rich plasma. Type of data set: cell-based. The note with it: Oryctolagus cuniculus; for activity at 10 µg/mL: 10 mcg/ml, arachidonic acid 50 mcg/ml. The procedure: as §1
The next data set deals with human platelets. The data set is described as follows: In vitro inhibition of human platelet aggregation, Born's method. In kind it is cell-based. The procedure:
The platelet antiaggregation activity of the active products in the initial screening (Table 4) has been confirmed and extended by evaluating the capacity thereof to inhibit in vitro the aggregation of human platelets using Born's method. ADP (1 mcM), collagen (2 mcg/ml), arachidonic acid (1 mM), U-46619 (1,4 mcM) and IBOP (225 nM) were used as aggregation inducing agents. The results obtained (Table 5) show the capacity of the products tested to inhibit dose dependently the platelet aggregation induced by collagen, arachidonic acid, U-46619 and IBOP, probably through interaction with the platelet endoperoxide/thromboxane receptor. Therefore, said compounds might be potentially useful in the treatment of disorders in which the thromboxanes play a part, such as myocardial infarct, cerebrovascular diseases and asthmatic and/or inflammatory states.

The nature of data set [4]: Mortality rate in the mouse after a single oral dose of 1600 mg/kg. The conditions noted are these: in vivo, single oral dose 1600 mg/kg. The procedure:
Likewise, to complete the superficial pharmacological profile, a check was made of the mortality rate in the mouse after oral administration of a single dose of 1600 mg/kg of each of the synthesized compounds (See Table 1).

Where [5] appears, read: read-out: Cl excretion, treated group/control group ratio.
[6] abbreviates: read-out: K excretion, treated group/control group ratio.
Where [7] appears, read: read-out: Na excretion, treated group/control group ratio.
The mark [8] stands for this setting: read-out: Volume urine, treated group/control group ratio.
Where [9] appears, read: IBOP 225 nM, read-out: Concentration inhibiting > 60% platelet aggregation, IBOP.
The mark [10] stands for this setting: U-46619 1,4 mcM, read-out: Concentration inhibiting > 60% platelet aggregation, U-46619.
Setting [11] is: arachidonic acid 1 mM, read-out: Concentration inhibiting > 60% platelet aggregation, arachidonic acid.
[12] abbreviates: collagen 2 mcg/ml, read-out: Concentration inhibiting > 60% platelet aggregation, collagen.

Like-named read-outs stand apart in the source and are kept apart here.

Broadly, the mortality is the share of the test organisms that died. A higher mortality goes with a strong lethal effect.

`CCN1c2nc3c(nc2C(N)=NS1(=O)=O)CCCC3` [4-amino-1-ethyl-6,7,8,9-tetrahydro-1,2,6-thiadiazine[3,4-b]quinoxaline 2,2-dioxide]: the activity at 30 µg/mL in data set [1] was 82%. In addition, the “Bronchodilatory activity (area ratio)” value in data set [2] (25 mg/kg i.d.) is reported as 0.6; in data set [2] (100 mg/kg i.d.) it was 0.4.

On to `CCN1c2nc(C)c(-c3ccccc3)nc2C(N)=NS1(=O)=O` [1-ethyl-6-phenyl-7-methyl, 4-amino-1-ethyl-6-phenyl-7-methylpyrazino[2,3-c]-1,2,6-thiadiazine 2,2-dioxide], for which the activity at 30 µg/mL in data set [1] is 93%. For the same compound, the response vs control in vivo at 20 mg/kg in the data set with rats (setting [5]) was 123%; with rats (setting [6]), 85%; in the data set on rats (setting [7]), 142%; with rats (read-out: Na/K) it was 165%; in the data set on rats (setting [8]) it was 121%. In addition, the activity at 10 µg/mL in data set [3] turned out to be 100%. The IC60 was 3000 nM in the data set with human platelets (setting [9]), 3000 nM in the data set with human platelets (setting [10]), 30000 nM in the data set with human platelets (setting [11]) and 1000 nM in the data set on human platelets (setting [12]).

For `CC(=O)Oc1ccccc1C(=O)O` [Aspirin, reference compound], in data set [3] (read-out: platelet antiaggregation activity (%)), the activity at 2.5 µg/mL amounted to 100%.

On to `CCN1c2ncc(C)nc2C(N)=NS1(=O)=O` [1-ethyl-6-methyl, 4-amino-1-ethyl-6-methylpyrazino[2,3-c]-1,2,6-thiadiazine 2,2-dioxide], for which the activity at 30 µg/mL in data set [1] was determined as 67%. Besides, the “Bronchodilatory activity (area ratio)” value in data set [2] (25 mg/kg i.d.) turned out to be 0.8; in data set [2] (100 mg/kg i.d.) it was 1.3.

In data set [3], `CCN1c2ncc(-c3ccccc3)nc2C(N)=NS1(=O)=O` [1-ethyl-6-phenyl, 4-amino-1-ethyl-6-phenyl-pyrazino[2,3-c]-1,2,6-thiadiazine 2,2-dioxide] returned an activity at 10 µg/mL of 100%. Moreover, the IC60 is 1000 nM in the data set with human platelets (setting [9]), 10000 nM in the data set on human platelets (setting [10]), 30000 nM in the data set with human platelets (setting [11]) and 1000 nM with human platelets (setting [12]).

Compound `CCc1nc2c(nc1CC)N(CC)S(=O)(=O)N=C2N` [1,6,7-triethyl, 4-amino-1,6,7-triethylpyrazino[2,3-c]-1,2,6-thiadiazine 2,2-dioxide] yielded a mortality in data set [4] of 50%. Besides, the response vs control in vivo at 20 mg/kg in the data set on rats (setting [5]) came to 216%; in the data set on rats (setting [6]) it was 127%; with rats (setting [7]) it was 198%; in the data set with rats (read-out: Na/K) it was 156%; in the data set with rats (setting [8]), 133%.

Compound `CCc1nc2c(nc1C)C(N)=NS(=O)(=O)N2C` [7-ethyl-1,6-dimethyl, 4-amino-7-ethyl-1,6-dimethylpyrazino[2,3-c]-1,2,6-thiadiazine 2,2-dioxide] showed a mortality in data set [4] of 0%. In data set [1], this compound showed an activity at 30 µg/mL of 95%. The response vs control in vivo at 20 mg/kg in the data set on rats (setting [5]) was 471%; in the data set with rats (setting [6]), 177%; with rats (setting [7]) it was 385%; in the data set on rats (read-out: Na/K) it was 218%; in the data set on rats (setting [8]), 152%.

As to `CCCc1nc2c(nc1C)C(N)=NS(=O)(=O)N2CC` [1-ethyl-6-methyl-7-propyl, 4-amino-1-ethyl-6-methyl-7-propylpyrazino[2,3-c]-1,2,6-thiadiazine 2,2-dioxide], the mortality in data set [4] worked out at 50%. Also, the response vs control in vivo at 20 mg/kg in the data set with rats (setting [5]) is 176%; with rats (setting [6]), 123%; in the data set with rats (setting [7]) it was 156%; in the data set with rats (read-out: Na/K), 127%; with rats (setting [8]), 109%.

As to `CCN1c2nc(-c3ccccc3)c(-c3ccccc3)nc2C(N)=NS1(=O)=O` [1-ethyl-6,7-diphenyl, 4-amino-1-ethyl-6,7-diphenylpyrazino[2,3-c]-1,2,6-thiadiazine 2,2-dioxide], the activity at 10 µg/mL in data set [3] came to 100%. The IC60 in the data set with human platelets (setting [9]) stood at 3000 nM; with human platelets (setting [10]), 1000 nM; in the data set with human platelets (setting [11]), 30000 nM; with human platelets (setting [12]), 1000 nM.

For the compound `CCN1c2nc(-c3ccccc3)c(Br)nc2C(N)=NS1(=O)=O` [6-bromo-1-ethyl-7-phenyl, 4-amino-6-bromo-1-ethyl-7-phenylpyrazino[2,3-c]-1,2,6-thiadiazine 2,2-dioxide], the activity at 30 µg/mL in data set [1] was 63%. Besides, the activity at 10 µg/mL in data set [3] was determined as 100%.

`Cn1c(=O)c2[nH]cnc2n(C)c1=O` [Theophylline, reference compound]: the activity at 30 µg/mL in data set [1] was 60%. In addition, the “Bronchodilatory activity (area ratio)” value in data set [2] (25 mg/kg i.d.) and in data set [2] (100 mg/kg i.d.) was 1 each time.
